Measured values reported in the NIST ThermoML archive (doi:10.1021/je900550v).
Numbers after ± are expanded uncertainties.

Conditions: 101.33 kPa, Liquid; for speed of sound: Pulse-echo method; for mass density: Vibrating tube method

CC(C)C(=O)[O-].C[NH2+]CCO [2-hydroxy-N-methylethanaminium isobutyrate]
Conditions	mass density [kg/m3]	speed of sound [m/s]	viscosity [mPa·s]
308.15 K	1036.92 ± 2.2	1583.1 ± 2.1	–
308.4 K	1036.77 ± 2.2	1582.4 ± 2.1	–
308.65 K	1036.6 ± 2.2	1581.7 ± 2.1	–
308.9 K	1036.44 ± 2.2	1581 ± 2.1	–
309.15 K	1036.28 ± 2.2	1580.3 ± 2.1	–
309.4 K	1036.11 ± 2.2	1579.6 ± 2.1	–
309.65 K	1035.95 ± 2.2	1578.8 ± 2.1	–
309.9 K	1035.79 ± 2.2	1578.2 ± 2.1	–
310.15 K	1035.62 ± 2.2	1577.5 ± 2.1	–
310.4 K	1035.46 ± 2.2	1576.7 ± 2.1	–
310.65 K	1035.29 ± 2.2	1576 ± 2.1	–
310.91 K	1035.13 ± 2.2	1575.3 ± 2.1	–
311.16 K	1034.97 ± 2.2	1574.6 ± 2.1	–
311.4 K	1034.81 ± 2.2	1573.9 ± 2.1	–
311.65 K	1034.64 ± 2.2	1573.2 ± 2.1	–
311.91 K	1034.48 ± 2.2	1572.5 ± 2.1	–
312.16 K	1034.32 ± 2.2	1571.8 ± 2.1	–
312.41 K	1034.15 ± 2.2	1571.1 ± 2.1	–
312.66 K	1033.99 ± 2.2	1570.4 ± 2.1	–
312.91 K	1033.82 ± 2.2	1569.7 ± 2.1	–
313.15 K	–	–	75.78 ± 2.7
313.16 K	1033.66 ± 2.2	1569 ± 2.1	–
313.4 K	1033.49 ± 2.2	1568.3 ± 2.1	–
313.66 K	1033.33 ± 2.2	1567.5 ± 2.1	–
313.9 K	1033.16 ± 2.2	1566.8 ± 2.1	–
314.15 K	1033 ± 2.2	1566.1 ± 2.1	–
314.4 K	1032.84 ± 2.2	1565.4 ± 2.1	–
314.65 K	1032.67 ± 2.2	1564.7 ± 2.1	–
314.9 K	1032.51 ± 2.2	1564 ± 2.1	–
315.15 K	1032.35 ± 2.2	1563.3 ± 2.1	–
315.41 K	1032.18 ± 2.2	1562.6 ± 2.1	–
315.65 K	1032.01 ± 2.2	1561.9 ± 2.1	–
315.91 K	1031.85 ± 2.2	1561.2 ± 2.1	–
316.16 K	1031.68 ± 2.2	1560.5 ± 2.1	–
316.41 K	1031.52 ± 2.2	1559.8 ± 2.1	–
316.66 K	1031.35 ± 2.2	1559.1 ± 2.1	–
316.91 K	1031.18 ± 2.2	1558.4 ± 2.1	–
317.16 K	1031.02 ± 2.2	1557.7 ± 2.1	–
317.4 K	1030.86 ± 2.2	1557 ± 2.1	–
317.66 K	1030.69 ± 2.2	1556.2 ± 2.1	–
317.91 K	1030.53 ± 2.2	1555.5 ± 2.1	–
318.15 K	–	–	60.1 ± 1.6
318.16 K	1030.36 ± 2.2	1554.8 ± 2.1	–
318.41 K	1030.19 ± 2.2	1554.1 ± 2.1	–
318.65 K	1030.03 ± 2.2	1553.4 ± 2.1	–
318.9 K	1029.87 ± 2.2	1552.7 ± 2.1	–
319.16 K	1029.7 ± 2.2	1552 ± 2.1	–
319.41 K	1029.53 ± 2.2	1551.3 ± 2.1	–
319.65 K	1029.37 ± 2.2	1550.6 ± 2.1	–
319.91 K	1029.2 ± 2.2	1549.9 ± 2.1	–
320.16 K	1029.03 ± 2.2	1549.2 ± 2.1	–
320.41 K	1028.87 ± 2.2	1548.4 ± 2.1	–
320.65 K	1028.7 ± 2.2	1547.7 ± 2.1	–
320.91 K	1028.54 ± 2.2	1547 ± 2.1	–
321.15 K	1028.37 ± 2.2	1546.3 ± 2.1	–
321.41 K	1028.2 ± 2.2	1545.6 ± 2.1	–
321.66 K	1028.03 ± 2.2	1544.9 ± 2.1	–
321.9 K	1027.87 ± 2.2	1544.2 ± 2.1	–
322.15 K	1027.7 ± 2.2	1543.4 ± 2.1	–
322.41 K	1027.54 ± 2.2	1542.7 ± 2.1	–
322.65 K	1027.37 ± 2.2	1542 ± 2.1	–
322.91 K	1027.2 ± 2.2	1541.3 ± 2.1	–
323.15 K	–	–	47.96 ± 1.4
323.16 K	1027.03 ± 2.2	1540.6 ± 2.1	–
323.41 K	1026.86 ± 2.2	1539.9 ± 2.1	–
323.65 K	1026.69 ± 2.2	1539.2 ± 2.1	–
323.91 K	1026.53 ± 2.2	1538.5 ± 2.1	–
324.16 K	1026.36 ± 2.2	1537.7 ± 2.1	–
324.41 K	1026.19 ± 2.2	1537 ± 2.1	–
324.65 K	1026.03 ± 2.2	1536.3 ± 2.1	–
324.9 K	1025.86 ± 2.2	1535.6 ± 2.1	–
325.16 K	1025.69 ± 2.2	1534.9 ± 2.1	–
325.4 K	1025.52 ± 2.2	1534.2 ± 2.1	–
325.66 K	1025.36 ± 2.2	1533.5 ± 2.1	–
325.9 K	1025.19 ± 2.2	1532.8 ± 2.1	–
326.16 K	1025.02 ± 2.2	1532.1 ± 2.1	–
326.41 K	1024.85 ± 2.2	1531.4 ± 2.1	–
326.66 K	1024.68 ± 2.2	1530.7 ± 2.1	–
326.9 K	1024.52 ± 2.2	1529.9 ± 2.1	–
327.16 K	1024.34 ± 2.2	1529.2 ± 2.1	–
327.4 K	1024.18 ± 2.2	1528.5 ± 2.1	–
327.66 K	1024.01 ± 2.2	1527.8 ± 2.1	–
327.9 K	1023.84 ± 2.2	1527.1 ± 2.1	–
328.15 K	1023.67 ± 2.2	1526.4 ± 2.1	–
328.41 K	1023.5 ± 2.2	1525.7 ± 2.1	–
328.66 K	1023.33 ± 2.2	1524.9 ± 2.1	–
328.9 K	1023.16 ± 2.2	1524.2 ± 2.1	–
329.16 K	1022.99 ± 2.2	1523.5 ± 2.1	–
329.4 K	1022.82 ± 2.2	1522.8 ± 2.1	–
329.65 K	1022.65 ± 2.2	1522 ± 2.1	–
329.9 K	1022.48 ± 2.2	1521.3 ± 2.1	–
330.16 K	1022.32 ± 2.2	1520.6 ± 2.1	–
330.41 K	1022.14 ± 2.2	1519.9 ± 2.1	–
330.66 K	1021.98 ± 2.2	1519.1 ± 2.1	–
330.91 K	1021.81 ± 2.2	1518.4 ± 2.1	–
331.16 K	1021.63 ± 2.2	1517.7 ± 2.1	–
331.41 K	1021.47 ± 2.2	1517 ± 2.1	–
331.66 K	1021.29 ± 2.2	1516.2 ± 2.1	–
331.91 K	1021.13 ± 2.2	1515.5 ± 2.1	–
332.16 K	1020.95 ± 2.2	1514.8 ± 2.1	–
332.41 K	1020.78 ± 2.2	1514.1 ± 2.1	–
332.66 K	1020.61 ± 2.2	1513.4 ± 2.1	–
332.91 K	1020.44 ± 2.2	1512.7 ± 2.1	–
333.16 K	1020.27 ± 2.2	1511.9 ± 2.1	–
333.41 K	1020.1 ± 2.2	1511.2 ± 2.1	–
333.66 K	1019.93 ± 2.2	1510.5 ± 2.1	–
333.91 K	1019.76 ± 2.2	1509.8 ± 2.1	–
334.16 K	1019.59 ± 2.2	1509.1 ± 2.1	–
334.41 K	1019.42 ± 2.2	1508.3 ± 2.1	–
334.66 K	1019.24 ± 2.2	1507.6 ± 2.1	–
334.91 K	1019.07 ± 2.2	1506.9 ± 2.1	–
335.16 K	1018.9 ± 2.2	1506.2 ± 2.1	–
335.41 K	1018.73 ± 2.2	1505.5 ± 2.1	–
335.66 K	1018.56 ± 2.2	1504.7 ± 2.1	–
335.91 K	1018.38 ± 2.2	1504 ± 2.1	–
336.16 K	1018.22 ± 2.2	1503.3 ± 2.1	–
336.41 K	1018.04 ± 2.2	1502.6 ± 2.1	–
336.66 K	1017.87 ± 2.2	1501.9 ± 2.1	–
336.9 K	1017.7 ± 2.2	1501.2 ± 2.1	–
337.16 K	1017.53 ± 2.2	1500.4 ± 2.1	–
337.4 K	1017.35 ± 2.2	1499.7 ± 2.1	–
337.66 K	1017.18 ± 2.2	1499 ± 2.1	–
337.9 K	1017.01 ± 2.2	1498.3 ± 2.1	–
338.15 K	1016.84 ± 2.2	1497.7 ± 2.1	–
